Assay results published in PubChem BioAssay AID1259411 (Chemical Carcinogenesis Research Information System (CCRIS), 2018).
Active and inactive are the calls of the source. How the calls were made is not given here.

Test system: rodent carcinogenicity bioassays, tumor incidence
Experiment: CCRIS carcinogenicity studies
Method in brief: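 Archive of carcinogenicity, mutagenicity, tumor promotion and tumor inhibition results drawn from journals, NCI reports and other sources, expert-reviewed; covers 1985-2011 and is no longer updated.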

SMILES: C1CCOC1
- carcinogen call (Species: MOUSE, Strain/Sex: B6C3F1/FEMALE, Route: INHALATION, Dose: 0, 200, 600, 1800 PPM 6HR/D 5 D/WK FOR 105 WK (STUDY DURATION: 105 WK), Dose: 0, 200, 600, 1800 PPM 6HR/D 5 D/WK FOR 105 WK (STUDY DURATION: 105 WK), Tumor Site: Type of Lesion: LIVER: ADENOMA OR CARCINOMA): active; positive
- carcinogen call (Species: MOUSE, Strain/Sex: B6C3F1/FEMALE, Route: INHALATION, Dose: 0, 200, 600, 1800 PPM 6 HR/D 5 D/WK FOR 105 WK (STUDY DURATION: 105 WK), Dose: 0, 200, 600, 1800 PPM 6 HR/D 5 D/WK FOR 105 WK (STUDY DURATION: 105 WK), Tumor Site: Type of Lesion: LIVER: HEPATOCELLULAR ADENOMA, HEPATOCELLULAR CARCINOMA): active; positive
- carcinogen call (Species: MOUSE, Strain/Sex: B6C3F1/MALE, Route: INHALATION, Dose: 0, 200, 600, 1800 PPM 6 HR/D 5 D/WK FOR 105 WK (STUDY DURATION: 105 WK), Dose: 0, 200, 600, 1800 PPM 6 HR/D 5 D/WK FOR 105 WK (STUDY DURATION: 105 WK)): inactive; negative
- carcinogen call (Species: RAT, Strain/Sex: F344/FEMALE, Route: INHALATION, Dose: 0, 200, 600, 1800 PPM 6 HR/D 5 D/WK FOR 105 WK (STUDY DURATION: 105 WK), Dose: 0, 200, 600, 1800 PPM 6 HR/D 5 D/WK FOR 105 WK (STUDY DURATION: 105 WK)): inactive; negative
- carcinogen call (Species: RAT, Strain/Sex: F344/MALE, Route: INHALATION, Dose: 0, 200, 600, 1800 PPM 6 HR/D 5 D/WK FOR 105 WK (STUDY DURATION: 105 WK), Dose: 0, 200, 600, 1800 PPM 6 HR/D 5 D/WK FOR 105 WK (STUDY DURATION: 105 WK), Tumor Site: Type of Lesion: KIDNEY: RENAL TUBULE ADENOMA OR CARCINOMA): active; positive

SMILES: C[C@]12CC[C@@H]3c4ccc(O)cc4CC[C@H]3[C@@H]1CC[C@@H]2O
- carcinogen call (Species: GUINEA PIG, Route: SUBCUTANEOUS IMPLANT, Tumor Site: Type of Lesion: UTERUS): active; positive
- carcinogen call (Species: HAMSTER, Route: SUBCUTANEOUS IMPLANT, Tumor Site: Type of Lesion: KIDNEY): active; positive
- carcinogen call (Species: HAMSTER, Strain/Sex: SYRIAN/MALE, Route: SUBCUTANEOUS IMPLANT, Dose: 0, 20 MG IN PELLETS IMPLANTED EVERY 2.5 MO FOR 9 MO (STUDY DURATION: 9 MO), Tumor Site: Type of Lesion: KIDNEY: TUMOR): active; positive
- carcinogen call (Species: MOUSE, Route: ORAL, SUBCUTANEOUS IMPLANT, Tumor Site: Type of Lesion: CERVIX, THYMUS GLAND, MAMMARY GLAND, UTERUS, VAGINA, Tumor Site: Type of Lesion: CERVIX, THYMUS GLAND, MAMMARY GLAND, UTERUS, VAGINA): active; positive
- carcinogen call (Species: MOUSE, Route: SUBCUTANEOUS, Tumor Site: Type of Lesion: LYMPHATIC SYSTEM): active; positive
- carcinogen call (Species: MOUSE, Strain/Sex: BALB/CCRGL/FEMALE, Route: SUBCUTANEOUS, Dose: 5 UG DAILY FOR 5 D BEGINNING 16 HR AFTER BIRTH (STUDY DURATION: 20 MO), Tumor Site: Type of Lesion: CERVICOVAGINAL TRACT: CARCINOMA (16/37)): active; positive
- carcinogen call (Species: RAT, Route: SUBCUTANEOUS IMPLANT, Tumor Site: Type of Lesion: MAMMARY GLAND, PITUITARY GLAND): active; positive

SMILES: O=CCCl
- carcinogen call (Species: MOUSE, Strain/Sex: B6C3F1/MALE, Route: ORAL, Dose: 0, 0.1 G/L DISTILLED DRINKING WATER FOR STUDY DURATION (17 MG/KG/D) (STUDY DURATION: 104 WK), Tumor Site: Type of Lesion: LIVER: HEPATOCELLULAR CARCINOMA, HEPATOCELLULAR ADENOMA): active; positive

SMILES: Cn1c2ccccc2c2ccccc21
- carcinogen call (Species: MOUSE, Strain/Sex: CD-1/FEMALE, Route: INTRAPERITONEAL, Dose: 0, 1.75 UMOL/MOUSE (TOTAL DOSE) ADMINISTERED DURING DAYS 1, 8, AND 15 OF LIFE (STUDY DURATION: 52 WK)): inactive; negative
- carcinogen call (Species: MOUSE, Strain/Sex: CD-1/MALE, Route: INTRAPERITONEAL, Dose: 0, 1.75 UMOL/MOUSE (TOTAL DOSE) ADMINISTERED DURING DAYS 1, 8, AND 15 OF LIFE (STUDY DURATION: 52 WK)): inactive; negative

SMILES: CC1CO1 (centres undefined)
- carcinogen call (Species: MOUSE, Strain/Sex: B6C3F1/FEMALE, Route: INHALATION, Dose: 0, 200, 400 PPM 6 HR/D, 5 D/WK FOR 103 WK, Dose: 0, 200, 400 PPM 6 HR/D, 5 D/WK FOR 103 WK, Tumor Site: Type of Lesion: NASAL TURBINATES: HEMANGIOMA OR HEMANGIOSARCOMA): active; positive
- carcinogen call (Species: MOUSE, Strain/Sex: B6C3F1/MALE, Route: INHALATION, Dose: 0, 200, 400 PPM 6 HR/D, 5 D/WK FOR 103 WK, Dose: 0, 200, 400 PPM 6 HR/D, 5 D/WK FOR 103 WK, Tumor Site: Type of Lesion: NASAL TURBINATES: HEMANGIOMA, HEMANGIOSARCOMA): active; positive
- carcinogen call (Species: MOUSE, Strain/Sex: NMRI/FEMALE, Route: SUBCUTANEOUS, Dose: 0, 0.1, 0.3, 1, 2.5 MG/MOUSE IN TRICAPRYLIN 1/WK FOR 95 WK (STUDY DURATION: 110 WK), Dose: 0, 0.1, 0.3, 1, 2.5 MG/MOUSE IN TRICAPRYLIN 1/WK FOR 95 WK (STUDY DURATION: 110 WK), Tumor Site: Type of Lesion: INJECTION SITE: TUMOR): active; positive
- carcinogen call (Species: RAT, Route: SUBCUTANEOUS, Tumor Site: Type of Lesion: INJECTION SITE): active; positive
- carcinogen call (Species: RAT, Strain/Sex: F344/FEMALE, Route: INHALATION, Dose: 0, 200, 400 PPM 6 HR/D, 5 D/WK FOR 103 WK, Dose: 0, 200, 400 PPM 6 HR/D, 5 D/WK FOR 103 WK, Tumor Site: Type of Lesion: NASAL TURBINATES: PAPILLARY ADENOMA): active; positive
- carcinogen call (Species: RAT, Strain/Sex: F344/MALE, Route: INHALATION, Dose: 0, 100, 300 PPM IN AIR 7 HR/D 5 D/WK FOR 104 WK (STUDY DURATION: 2 YR), Dose: 0, 100, 300 PPM IN AIR 7 HR/D 5 D/WK FOR 104 WK (STUDY DURATION: 2 YR), Tumor Site: Type of Lesion: ADRENAL GLAND: PHEOCHROMOCYTOMA, PITUITARY GLAND: ADENOMA): active; positive
- carcinogen call (Species: RAT, Strain/Sex: F344/MALE, Route: INHALATION, Dose: 0, 200, 400 PPM 6 HR/D, 5 D/WK FOR 103 WK, Dose: 0, 200, 400 PPM 6 HR/D, 5 D/WK FOR 103 WK, Tumor Site: Type of Lesion: NASAL TURBINATES: PAPILLARY ADENOMA): active; positive
- carcinogen call (Species: RAT, Strain/Sex: SPRAGUE-DAWLEY/FEMALE, Route: GAVAGE, Dose: 15, 60 MG/KG IN SALAD OIL 2/WK FOR UP TO 150 WK, Tumor Site: Type of Lesion: FORESTOMACH: SQUAMOUS CELL CARCINOMA): active; positive
- carcinogen call (Species: RAT, Strain/Sex: SPRAGUE-DAWLEY/MALE, Route: INHALATION, Dose: 0, 435, 870, 1740 PPM 6 HR/D 5 D/WK FOR 30 D EXCEPT 1740 PPM GROUP WHICH WAS EXPOSED FOR 5 D (STUDY DURATION: LIFETIME), Dose: 0, 435, 870, 1740 PPM 6 HR/D 5 D/WK FOR 30 D EXCEPT 1740 PPM GROUP WHICH WAS EXPOSED FOR 5 D (STUDY DURATION: LIFETIME)): inactive; negative
